The text below walks through data of US20100196321A1, “COMPOUNDS” (GLAXOSMITHKLINE LLC, priority 2009, published 2010).

Test [1] deals with sub-genomic HCV NS3-NS5B replicon of genotype 1a in Huh-7 cells. Kind of test: Replicon Luciferase Cell Based Assay, genotype 1a. Set-up: species or system HCV genotype 1a. The conditions noted are these: Hepatitis C virus, Huh-7, 48 hours. In short, it runs like this:
(§1)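 5,000 luciferase-replicon cells per well in DMEM with 5% FCS were exposed to 1:3 compound dilutions for 48 h at 37 °C. Firefly luciferase (Steady-Glo) was read, with CellTiter-Glo on duplicate plates for cytotoxicity; background-subtracted signal as % of compound-free control gave IC50.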
On the technique in general: Replicon systems follow genome replication, usually without infectious particles.

The test system of test [2] is HCV mutant replicon A156T. Nature of the test: HCV PI Transient Replicon Assay, A156T. Format: cell-based. As to conditions: Hepatitis C virus, 72 h, read-out: A156T EC50 values (nM). From the text: (§2) A model system for HCV RNA replication is a cell based assay using subgenomic or genomic HCV replicons containing HCV genes and possibly a selectable and/or screenable marker. […] The HCV PI transient replicons assay was derived from two publications ([…]; J Virol 75, 12047, 2001). In this assay, the target cells were “ET Cured cells”, a cell line generated by treating ET replicons cells (RebliKon) with Interferon a for several passages until the HCV genome was cleared. Other modifications to the published protocol included 1) cells were transfected in PBS and 2) were treated for 72 hours with compounds. Data from dose responses was analyzed using BioAssay. EC50 values were generated by plotting percent inhibition against compound concentration. The various HCV mutant replicons were generated by standard molecular biology techniques and confirmed by sequencing.

The subject of test [3] is HCV mutant replicon D168A. Kind of test: HCV PI Transient Replicon Assay, D168A. As to conditions: Hepatitis C virus, 72 h, read-out: D168A EC50 values (nM). The test is classed as cell-based.
Text: as §2

In test [4] the target is HCV Genotype 1a NS3-4A Protease Domain (Hepatitis C virus genotype 1a, UniProt P27958, T1100M/T1173A). Kind of test: Hepatitis C NS3 Protease FRET Assay (RET-S1). Format: biochemical. On the procedure: Hepatitis C NS3 Protease FRET Assay (RET-S1) Using the HCV Genotype 1a NS3-4A Protease Domain
Compounds were tested as inhibitors of HCV NS3-4A protease domain in 10 μl reactions which contained 50 mM HEPES pH 7.5, 20% sucrose, 0.05% NP40, 5 mM DTT, 1 μM 4A peptide ([…] that served as a cofactor and activated the enzyme in the assay) (prepared by standard synthetic methods), 5 μM RET S1 substrate (Ac-DED(EDANS)EEAbu ψ[COO] ASK(DABCYL)) and 1 nM NS3 protease domain. The RET S1 substrate (Ac-Asp-Glu-Asp(EDANS)-Glu-Glu-Abu-ψ-[COO]-Ala-Ser-Lys(DABCYL)-NH2) was purchased from Anaspec, Inc. (Taliani et. al, 1996, Anal Biochem). “ψ-[COO]” refers to the location of the ester bond within the molecule
Cleavage of the substrate, which is based on the natural NS4A/NS4B junction (DEMEECASHL), was monitored by measuring the increase in fluorescence with 355 nm excitation/495 nm emission in a Molecular Devices SpectraMax Gemini plate reader. Compounds were dissolved in DMSO and tested at 10 μM in duplicate or in dose response curves with usually 10 μM top concentration and 3-fold dilutions. The maximum level of DMSO was 5%. The standard compound in the assay was the compound BILN-2061 (Lamarre at al., (2003) Nature, 426, 186-189).

Test [5] concerns HCV mutant replicon A156V. Kind of test: HCV PI Transient Replicon Assay, A156V. The test is classed as cell-based. As to conditions: Hepatitis C virus, 72 h, read-out: A156V EC50 values (nM).
Text: as §2

Test [6] relates to HCV mutant replicon D168V. Nature of the test: HCV PI Transient Replicon Assay, D168V. Format: cell-based. The conditions noted are these: Hepatitis C virus, 72 h, read-out: D168V EC50 values (nM).
Text: as §2

The test system of a further test is HCV replicon wt. Nature of the test: HCV PI Transient Replicon Assay, wt. The test is classed as cell-based. As to conditions: Hepatitis C virus; ET Cured cells, 72 hours.
Text: as §2

Test [7] concerns HCV protease-resistant mutants. Kind of test: HCV PI Transient Replicon Assay, profile over resistant mutants. The conditions noted are these: e.g. A1566S, A156T, R155K, others. Format: cell-based.
Text: as §2
Compounds of the invention are thought to be active against HCV protease-resistant mutants. […] EC50 values (nM) are shown below in Table 3.

The test system of test [8] is HCV mutant replicon R155K. Kind of test: HCV PI Transient Replicon Assay, R155K. Format: cell-based. The conditions noted are these: Hepatitis C virus, 72 h, read-out: R155K EC50 values (nM).
Text: as §2

Test [9] concerns sub-genomic HCV NS3-NS5B replicon of genotype 1b (ET subline) in Huh-7 cells. Kind of test: Replicon Luciferase Cell Based Assay, genotype 1b. Details: species or system HCV genotype 1b. As to conditions: Hepatitis C virus, Huh-7, 48 h, read-out: Genotype 1b (IC50 μM). In short, it runs like this: as §1
In test [10] the test system is HCV mutant replicon A156S. Kind of test: HCV PI Transient Replicon Assay, A156S. Format: cell-based. As to conditions: Hepatitis C virus, 72 h, read-out: A156S EC50 values (nM).
Text: as §2

One may read the IC50 as the concentration that gives 50% inhibition. In general, EC50 refers to the concentration giving half of the maximal effect.

As to `COc1ccc2c(O[C@@H]3C[C@H]4C(=O)N[C@]5(C(=O)NS(=O)(=O)C6CC6)C[C@H]5/C=C\CCCCC[C@H](NC(=O)N5CCCCC5)C(=O)N4C3)cc(-c3nc(C(C)C)cs3)nc2c1C` [Example 16, (2R,6S,13aS,14aR,16aS)-N-(cyclopropylsulfonyl)-2-{[8-methyl-2-[4-(1-methylethyl)-1,3-thiazol-2-yl]-7-(methyloxy)-4-quinolinyl]oxy}-5,16-dioxo-6-[(1-piperidinylcarbonyl)amino]-1,2,3,6,7,8,9,10,11,13a,14,15,16,16a-tetradecahydrocyclopropa[e]pyrrolo[1,2-a][1,4]diazacyclopentadecine-14a(5H)-carboxamide], the results for the IC50 in test [1], in test [4] and in test [9] were below 0.01 µM, 5 nM and below 0.01 µM, respectively. For the same compound, the EC50 in test [2] amounted to 1.95 nM; in test [3], 24.8 nM; in test [5], 7.17 nM; in [6] it was 80.6 nM; in the test with HCV replicon wt, 0.04 nM; in test [8], 6.93 nM. Also, the EC50 in test [10] came to 0.07 nM. The “profile against resistant mutants compared with other HCV PI inhibitors ITMN-191 and TMC-435350” value in test [7] is given as “improved profile”.
`COc1ccc2c(O[C@@H]3C[C@H]4C(=O)N[C@]5(C(=O)NS(=O)(=O)C6CC6)C[C@H]5/C=C\CCCCN(C)C(=O)[C@@H]4C3)cc(-c3nc(C(C)C)cs3)nc2c1C` [TMC-435350]: the EC50 was determined as 57.5 nM in test [2]; 161 nM in [3]; 36.3 nM in test [5]; 43.7 nM in test [6]; 0.87 nM with HCV replicon wt; 58.9 nM in test [8]. Moreover, the EC50 in test [10] was 0.28 nM.
Turning to `CC(C)(C)OC(=O)N[C@H]1CCCCC/C=C\[C@@H]2C[C@@]2(C(=O)NS(=O)(=O)C2CC2)NC(=O)[C@@H]2C[C@@H](OC(=O)N3Cc4cccc(F)c4C3)CN2C1=O` [ITMN-191], the EC50 in test [2] is 6.46 nM; in test [3], 54.4 nM; in [5], 11.9 nM; in [6], 33.1 nM; with HCV replicon wt it was 0.07 nM; in [8], 109 nM. For the same compound, the EC50 in test [10] stood at 1.64 nM.
Take `C=C1CCN(C(=O)N[C@H]2CCCCC/C=C\[C@@H]3C[C@@]3(C(=O)NS(=O)(=O)C3CC3)NC(=O)[C@@H]3C[C@@H](Oc4cc(-c5nc(C6CC6)cs5)nc5c(Cl)c(OC)ccc45)CN3C2=O)CC1` [Example 27, (2R,6S,13aS,14aR,16aS,Z)-2-(8-chloro-2(4-cyclopropylthiazol-2-yl)-7-methoxyquinolin-4-yloxy)-N-(cyclopropylsulfonyl)-6-(4-methylenepiperidine-1-carboxamido)-5,16-dioxo-1,2,3,5,6,7,8,9,10,11,13a,14,14a,15,16,16a-hexadecahydrocyclopropa[e]pyrrolo[1,2-a][1,4]diazacyclopentadecine-14a-carboxamide]: the IC50 in [1] and in test [9] was below 0.01 µM throughout.
